# Entries after “also recorded” stand apart in the source; their conditions may differ.
# Experiments:
# [1] = tested on: C57Bl/6 stroma and hematopoietic cells (LTC-IC); assay: LTC-IC assay on wild-type stroma, in vitro treatment with PTH; assay type: cell-based, mouse
# Procedure: Murine bone marrow stromal cells from confluent cultures were irradiated (15Gy) and plated at a concentration of 20,000 cells/well in 96-well plates in long-term culture medium. Cells were then seeded into the plates in two-fold serial limiting dilutions and cultured at 33° C./5% CO2 in a humidified atmosphere. Cultures were maintained for 5 weeks, changing half of the medium in the wells weekly. Following this, the medium was replaced with methylcellulose containing medium supplemented with recombinant cytokines as described above, then scored for colony growth ten days following the addition of the medium.
# LTC-IC assays were performed using wild-type stroma and hematopoietic cells. […] After fixation in 10% Neutral Formalin Buffer for 30 minutes at room temperature, alkaline phosphatase activity was determined histochemically by incubation for 45 minutes at RT with a mixture of 0.1 mg/ml naphthol AS-MX phosphate (Sigma), 0.5% N,N-dimethylformamide, 0.6 mg/ml red violet LB salt (Sigma) in 0.1 M Tris-HCl (pH 8.5). Alkaline phosphatase positive cells were counted at day 10 of culture, when the cultures were subconfluent and individual cells could be identified. […]
# [2] = tested on: lin-Sca-1+c-Kit+ cells in bone marrow; assay: In vivo PTH administration: flow cytometry of lin-Sca-1+c-Kit+ cells; design: species or system C57Bl/6 mice; settings: four weeks PTH; P<0.01, FIG. 5d
# Excerpt: Bone marrow mononuclear cells were isolated as described above. Single cell suspensions were then stained with biotinylated lineage antibodies (CD3, CD4, CD8, Ter119, Gr-1, Mac-1 and B220) and phycoerythrin conjugated anti-Sca-1 and anti-c-Kit (Pharmingen, San Diego, Calif.). Cells were then labeled with a secondary fluorescein isothiocyanante conjugated streptavidin and analyzed on a FACScalibur cytometer (Becton Dickinson and Co., Franklin Lakes, N.J.) using Cell Quest software. […]
# For PTH administration, 6-8 week old wild type C57/B male mice were used. […] At the end of the treatment period, ionized serum calcium was measured by the Ciba/Corning 634 Ca^++/pH analyzer, and, after euthanasia, the hind limbs and forelimbs were dissected and utilized for cytologic and histologic analysis.
# As treatment of stromal cells with PTH led to an increase in the ability of the stromal cell population to support hematopoietic stem cells, it was investigated whether these effects could be recapitulated in vivo. Wild-type C57Bl/6 mice were injected daily with PTH using an intermittent dosing schedule known to increase osteoblasts, and the frequencies of LTC-ICs in the bone marrow were measured. […]
# [3] = tested on: C-1498/GFP leukemia cells; assay: Leukemia outgrowth in niche-stimulated animals; assay type: in vivo, mice
# Excerpt: The kinetics of leukemia cell engraftment, growth, and maturation were studied in normal mice. In an effort to analyze the growth and fate of C-1498 leukemia cells transplanted into mice, the cells were transduced with a retrovirus expressing GFP(C-1498/GFP). This allows easy tracking of these cells in vivo using GFP as a marker (FIG. 9a). The acute myelogenous leukemia cell line C-1498, a spontaneously-arising acute myelomonocytic leukemia derived from C57/BL6 (H2-b) mice, is easily transplantable, can be cultured in vitro, and infected with retroviruses.
# Attention was subsequently directed to determining how activation of the stem cell niche with PTH might affect leukemia growth and maturation. To investigate the kinetics of leukemia outgrowth in “niche-stimulated” animals, animals were pre-stimulated with PTH at 80 μg/kg/day (versus saline alone) for one month. Mice were then lethally irradiated at 10 Gray, and then transplanted with 50,000 leukemia cells (GFP+) and 1×10^6 normal bone marrow cells (GFP-) (FIG. 10a). At 15 days post-transplantation, bone marrow was harvested, and, then, GFP-positive cells were scored as percentage and in absolute number. Since the absolute number of total cells was not statistically different between both groups, only the percentage figures are shown in FIG. 10b, left panel.
# In mock-treated animals, osteoblasts and osteoprogenitors, identified at PTH-receptor positive cells, were found lining the endostial surfaces of bone.
substance,measurement,setting,value
Rat PTH (1-34),ability of stroma to support LTC-ICs,"[1]; PTH 10^-7 M present during expansion of the stromal population, P=0.004, FIG. 5a",enhanced the ability of the stroma to support LTC-ICs; also recorded: increasing LTC-IC
same,LTC-IC support,"[1]; stromal cells expanded in the absence of PTH, or PTH added at the same time as the hematopoietic cells",the effect was not seen
same,lin-Sca-1+c-Kit+ cells compared with mock treated controls,[2],higher frequency and absolute number
same,"localisation of PTH-r positive cells (osteoblasts, osteoprogenitors)","[3]; 10 micron bone sections, PTH-treated animals",migrated extensively into the marrow
same,GFP-positive leukemia cells in bone sections (histology),"[3]; 10 micron bone sections, PTH-treated vs mock-treated",markedly reduced
same,number of GFP-positive leukemia initiating cells in bone marrow,"[3]; PTH 80 μg/kg/day one month pre-stimulation, 15 days post-transplantation, 3 of 3 experiments",markedly reduced
same,kinetics of normal hematopoiesis,"[3]; PTH treated animal, FIG. 11",did not change

# Source: patent US8802104B2, “Parathyroid hormone receptor activation and stem and progenitor cell expansion” (The General Hospital Corporation, priority 2002, dated 2014)
